Test results from article PMC3681751, “Identification of a Novel Antimicrobial Peptide from Human Hepatitis B Virus Core Protein Arginine-Rich Domain (ARD)” (PLoS Pathogens, 2013).
In brackets after ≈: the same amount, converted by molar mass. Residues, ends and D or L forms follow the SMILES beside them.

Legend:
E. coli (ATCC 25922) = format: cell-based, Escherichia coli; details: 3 h at 37°C in phosphate buffer pH 7.2; triplicate
Outline: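 Mid-log cultures grown in Mueller–Hinton broth were diluted to 10^6 CFU/ml in 10 mM sodium phosphate, 50 mM NaCl, pH 7.2, mixed with serially diluted HBc ARD peptides, and held 3 hours at 37°C without shaking. Survivors were plated on Mueller–Hinton agar overnight at 37°C to define MBC; triplicates.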

Vero cells = test: CFSE cell proliferation assay; format: cell-based, monkey; details: 5, 25 and 100 µM for 1 hour; flow cytometry
Description: To set up CFSE cell proliferation assay, 293 cells (human kidney origin) and Vero cells (monkey kidney origin) were resuspended in PBS to a final concentration of 10^6 cells/ml, before incubation with 10 µM CFSE dye (CellTrace CFSE cell proliferation kit, Invitrogen) at 37°C for 10 min. To quench the staining, ice-old culture media were then added and incubated on ice for 5 min. Labeled cells were then pelleted and washed three times by fresh medium containing 10% FBS before seeding into six well plates at a density of 3.3×10^5cells/well. After 20 h, the medium was removed and incubated with fresh medium containing 5, 25 and 100 µM HBc 147-183 for one hour (FITC-labeled ARD peptide had been largely internalized in 10 minutes after the addition of ARD peptides to the medium of HepG2 cells). Forty-eight hours later, cells were harvested and analyzed by flow cytometry (FACSCanto, BD Bioscience).

P. aeruginosa NHRI-01 = format: cell-based, Pseudomonas aeruginosa; details: colistin-resistant P. aeruginosa of Table 2
Description: (§1) Clinical isolates of Pseudomonas aeruginosa (NHRI-01, NHRI-02 and NHRI-04) were obtained through the program of Taiwan Surveillance of Antimicrobial Resistance (TSAR), National Health Research Institutes (NHRI), Taiwan. Acinetobacter baumannii (ATCC 17989, ATCC 17978 CR, ATCC19606, ATCC 19606 CR, TCGH 45530 and TCGH 46709) were obtained from Tzu-Chi Buddhist General Hospital (TCGH) in Taiwan, and clinical isolates (TCGH 45530 and TCGH 46709) were identified using the Vitek system (Biomerieux Vitek, Inc., Hazelwood, MO, USA). A. baumannii is defined as multidrug-resistant, when the organism is resistant to piperacillin, piperacillin-tazobactam, ampicillin/sulbactam, imipenem, ceftazidime, gentamicin, amikacin, tetracycline, chloramphenicol, ciprofloxacin, and cotrimoxazole. Susceptibility to colistin was determined using the broth-dilution method, in accordance with the guidelines of the Clinical and Laboratory Standards Institute (CLSI).
(§2) All peptides were purchased from Yao-Hong Biotechnology Inc. (Taipei, Taiwan). Vendors provided data of peptide characterizations, including HPLC and Mass (data not shown). Antimicrobial activity was determined as described with some modifications as detailed below. Bacteria were grown overnight in Mueller–Hinton broth (Difco) at 37°C, and during the mid-logarithmic phase, bacteria were diluted to 10^6 CFU (colony formation unit)/ml in phosphate buffer (10 mM sodium phosphate and 50 mM sodium chloride, pH 7.2). Peptides were serially diluted in the same buffer. Fifty microliter (µl) of bacteria was mixed with fifty µl of peptides at varying concentrations followed by incubation at 37°C for 3 hours without shaking. At the end of incubation, bacteria were placed on Mueller-Hinton broth agar plates, and allowed growth at 37°C overnight for measurement of minimal bactericidal concentration (MBC). […] All peptides were tested in triplicate.

P. aeruginosa NHRI-04 = format: cell-based, Pseudomonas aeruginosa; details: NHRI-04, 3 h
Description: as §1, §2

P. aeruginosa NHRI-02 = format: cell-based, Pseudomonas aeruginosa; details: NHRI-02, 3 h
Description: as §1, §2

[1] = LPS/Lipid A competition ELISA; format: binding; details: 10 nM peptide, 1 µg LPS per well, E. coli Lipid A 0 to 10 µg/ml, 1 hour 37°C
Description: Several kinds of peptide-LPS or peptide-Lipid A binding assays were performed in this study: 1) Streptavidine-conjugated beads (Dynabeads MyOne Streptavidin T1, Invitrogen) were blocked by P. aeruginosa LPS (Sigma) at 37°C for 1.5 hour. After washing with PBST (PBS, pH 7.4 containing 0.1% (w/v) Tween-20), aliquots containing 250 pmol streptavidine-conjugated beads were incubated with a reaction mixture overnight at 4°C. The reaction mixture was prepared by mixing increasing amounts of biotinylated peptide HBc147-183 (0, 0.004, 0.02, 0.1, 0.5 and 2.5 µM) and 5 µg/ml P. aeruginosa LPS (Sigma) or 200 µg/ml E. coli lipid A (Sigma), at 37°C for 3 hour. After incubation overnight at 4°C, the reduction of LPS (or Lipid A) in the supernatants were measured by the Limulus Amebocyte Lysate (LAL) test (Charles River Endosafe) with an ELISA reader (Molecular Devices). The amount (EU/ml) of LPS was calculated according to the standard curve prepared with Endosafe Control Srandard Endotoxin. […] After trypsinization, the trypsin-released LPS in the supernatants were collected and measured by the Limulus Amebocyte Lysate (LAL) test. […] Plate-bound HBc147-183 was measured by streptavidin conjugated with HRP (1∶10000 dilution) for 1 hour at 37°C. […] The absorption was measured at 450 nm with a reference wavelength at 655 nm.

CC(C)[C@H](NC(=O)[C@@H](NC(=O)[C@@H](N)[C@@H](C)O)C(C)C)C(=O)N[C@@H](CCCNC(=N)N)C(=O)N[C@@H](CCCNC(=N)N)C(=O)N[C@@H](CCCNC(=N)N)C(=O)NCC(=O)N[C@@H](CCCNC(=N)N)C(=O)N[C@@H](CO)C(=O)N1CCC[C@H]1C(=O)N[C@@H](CCCNC(=N)N)C(=O)N[C@@H](CCCNC(=N)N)C(=O)N[C@@H](CCCNC(=N)N)C(=O)N[C@H](C(=O)N1CCC[C@H]1C(=O)N[C@@H](CO)C(=O)N1CCC[C@H]1C(=O)N[C@@H](CCCNC(=N)N)C(=O)N[C@@H](CCCNC(=N)N)C(=O)N[C@@H](CCCNC(=N)N)C(=O)N[C@@H](CCCNC(=N)N)C(=O)N[C@@H](CO)C(=O)N[C@@H](CCC(N)=O)C(=O)N[C@@H](CO)C(=O)N1CCC[C@H]1C(=O)N[C@@H](CCCNC(=N)N)C(=O)N[C@@H](CCCNC(=N)N)C(=O)N[C@@H](CCCNC(=N)N)C(=O)N[C@@H](CCCNC(=N)N)C(=O)N[C@@H](CO)C(=O)N[C@@H](CCC(N)=O)C(=O)N[C@@H](CO)C(=O)N[C@@H](CCCNC(=N)N)C(=O)N[C@@H](CCC(=O)O)C(=O)N[C@@H](CO)C(=O)N[C@@H](CCC(N)=O)C(=O)N[C@@H](CS)C(=O)O)[C@@H](C)O [HBc147-183] (H-TVVRRRGRSPRRRTPSPRRRRSQSPRRRRSQSRESQC-OH; N-terminus and C-terminus assumed)
Antimicrobial activity, MBC (E. coli (ATCC 25922)): 18.36 µg/mL
Effect on cell proliferation (CFSE intensity, day 3 vs mock) (Vero cells): no significant effect
MBC against colistin-resistant P. aeruginosa (P. aeruginosa NHRI-01): > 16 µM
MBC (P. aeruginosa NHRI-04): 18.36 µg/mL (≈ 4 µM)
MBC against colistin-sensitive P. aeruginosa (P. aeruginosa NHRI-02): 4 µM (≈ 18.4 µg/mL)
Binding of peptide to plate-coated LPS with increasing Lipid A [1]: significantly decreased
